Experimental data taken from patent publication US10709758B2 (priority 2015, dated 2020).

Target: TcdB1 (Clostridioides difficile, UniProt P18177)
Sequence (P18177 2-2366 limits assumed): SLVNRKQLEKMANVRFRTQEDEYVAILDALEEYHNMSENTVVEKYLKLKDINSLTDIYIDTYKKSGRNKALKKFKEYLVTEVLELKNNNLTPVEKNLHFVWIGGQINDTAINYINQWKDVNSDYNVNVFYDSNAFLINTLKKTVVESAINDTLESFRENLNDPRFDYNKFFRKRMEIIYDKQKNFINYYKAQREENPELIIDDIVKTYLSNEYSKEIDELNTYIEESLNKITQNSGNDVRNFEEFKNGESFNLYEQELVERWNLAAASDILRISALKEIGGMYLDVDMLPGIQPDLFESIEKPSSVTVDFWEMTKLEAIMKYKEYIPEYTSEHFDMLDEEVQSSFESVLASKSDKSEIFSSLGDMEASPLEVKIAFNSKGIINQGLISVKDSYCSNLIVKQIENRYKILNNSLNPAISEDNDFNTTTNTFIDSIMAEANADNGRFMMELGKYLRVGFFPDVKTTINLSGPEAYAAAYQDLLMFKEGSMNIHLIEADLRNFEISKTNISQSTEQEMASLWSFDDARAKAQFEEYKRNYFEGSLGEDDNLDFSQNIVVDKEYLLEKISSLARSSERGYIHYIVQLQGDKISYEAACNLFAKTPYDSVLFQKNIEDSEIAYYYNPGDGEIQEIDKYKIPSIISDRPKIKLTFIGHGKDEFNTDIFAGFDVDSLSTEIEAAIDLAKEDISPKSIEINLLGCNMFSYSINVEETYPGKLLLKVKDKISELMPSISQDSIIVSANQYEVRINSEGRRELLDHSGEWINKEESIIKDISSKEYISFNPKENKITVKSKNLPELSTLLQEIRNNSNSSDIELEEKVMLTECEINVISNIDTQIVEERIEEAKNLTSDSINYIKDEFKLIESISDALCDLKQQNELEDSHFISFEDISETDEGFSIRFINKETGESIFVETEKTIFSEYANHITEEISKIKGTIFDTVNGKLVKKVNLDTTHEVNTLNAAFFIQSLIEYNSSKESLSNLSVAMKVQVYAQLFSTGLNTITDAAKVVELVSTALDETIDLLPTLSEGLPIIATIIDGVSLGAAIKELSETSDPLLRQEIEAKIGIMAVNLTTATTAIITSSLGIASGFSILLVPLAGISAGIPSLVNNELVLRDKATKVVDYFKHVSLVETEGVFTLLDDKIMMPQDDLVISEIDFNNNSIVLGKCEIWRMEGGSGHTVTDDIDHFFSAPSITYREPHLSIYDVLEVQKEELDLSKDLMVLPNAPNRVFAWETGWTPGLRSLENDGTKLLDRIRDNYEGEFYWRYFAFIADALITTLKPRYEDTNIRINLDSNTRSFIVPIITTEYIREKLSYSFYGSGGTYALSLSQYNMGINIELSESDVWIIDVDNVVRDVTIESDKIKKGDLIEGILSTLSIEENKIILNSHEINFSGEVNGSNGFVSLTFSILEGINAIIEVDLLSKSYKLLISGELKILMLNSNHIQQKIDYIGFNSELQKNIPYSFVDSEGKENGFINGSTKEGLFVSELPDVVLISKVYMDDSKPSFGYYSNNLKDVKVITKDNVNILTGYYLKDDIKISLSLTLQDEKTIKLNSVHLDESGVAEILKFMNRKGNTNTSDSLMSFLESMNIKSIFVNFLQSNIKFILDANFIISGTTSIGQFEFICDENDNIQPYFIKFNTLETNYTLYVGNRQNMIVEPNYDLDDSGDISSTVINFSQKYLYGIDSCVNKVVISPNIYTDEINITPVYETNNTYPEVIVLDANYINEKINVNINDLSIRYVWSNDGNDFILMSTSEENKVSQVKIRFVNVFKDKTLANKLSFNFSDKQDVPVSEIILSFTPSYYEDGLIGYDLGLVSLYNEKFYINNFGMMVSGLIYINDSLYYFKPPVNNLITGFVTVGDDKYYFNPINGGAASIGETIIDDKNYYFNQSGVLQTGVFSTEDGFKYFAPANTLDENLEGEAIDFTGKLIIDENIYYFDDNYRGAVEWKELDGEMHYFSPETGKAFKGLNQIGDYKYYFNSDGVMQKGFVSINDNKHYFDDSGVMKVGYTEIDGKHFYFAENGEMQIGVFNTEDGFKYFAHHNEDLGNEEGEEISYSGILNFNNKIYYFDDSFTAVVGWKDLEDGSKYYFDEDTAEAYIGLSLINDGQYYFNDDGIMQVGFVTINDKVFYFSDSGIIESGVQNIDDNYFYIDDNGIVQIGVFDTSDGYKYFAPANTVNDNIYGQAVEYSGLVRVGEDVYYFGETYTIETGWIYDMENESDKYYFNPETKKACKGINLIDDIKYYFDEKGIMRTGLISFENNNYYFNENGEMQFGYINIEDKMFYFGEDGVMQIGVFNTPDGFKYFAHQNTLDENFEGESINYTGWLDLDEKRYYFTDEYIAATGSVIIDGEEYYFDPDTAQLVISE

Sequence | TcdB inhibitory activity of PepB2/PepB1 substitution variants
NVFKGKTISDKISFNFSDK [PepB2-N6K] | TcdB inhibitory activity also disappeared
NVFKDNTISDKISFNFSDK [PepB2-G5D] | inhibitor activity was lost
NVFKDKTISDKISFNFSDK [PepB2-GN5-6DK] | inhibitory activity of the resulting peptide was lost
NVFKSNTISDKISFNFSDK [PepB2-G5S] | activity was also lost
NVFKGNTLANKLSFNFSDK [PepB1-DK5-6GN] | Inhibitory activity was gained
